From patent US7186701B2, “Dehydrating agent and method for dehydrating moist article using the agent and dehydrated article obtained by the method” (Kabushiki Kaisha Hayashibara Seibutsu Kagaku Kenkyujo, priority 2001, dated 2007)
Read-outs that look alike come from different tables or passages of the source.

Experiments:
[1] = Dehydration and pulverization of plain yogurt by non-reducing saccharide; parameters: unit not given here
Protocol: The anhydrous crystalline cyclotetrasaccharide; crystalline cyclotetrasaccharide, monohydrate; and anhydrous amorphous cyclotetrasaccharide were respectively prepared by the methods in Examples A-1, A-2, and A-3. As the crystalline α,α-trehalose, dihydrate, a commercially available “TREHA®” commercialized by Hayashibara Shoji Inc., Okayama, Japan, was used. The anhydrous crystalline α,α-trehalose and the anhydrous amorphous α,α-trehalose used in this experiment were prepared from a commercialized crystalline α,α-trehalose, dihydrate, using the methods disclosed in Examples for Reference 1 and 3 in Japanese Patent Kokai No. 170,221/94. To four parts by weight of a plain yogurt with a moisture content of about 77% was added either of the above saccharides in an amount of 11 to 16 parts by weight. The resultant mixtures were respectively placed in vats, allowed to stand at 25° C. for 24 hours, and macroscopically observed their change on standing. The judgement was conducted in such a manner of sufficiently dehydrating the resulting mixtures to be solidified, subjected to a pulverizer for pulverization, and evaluated as “◯”, when the solids were easily pulverized; “Δ”, when the dehydration of the resulting mixtures was rather insufficient and the pulverization of solids was substantially difficult, though the resulting mixtures were solidified; and “x”, when the dehydration of the resulting mixtures was insufficient and could not be pulverized by a pulverizer.

[2] = Dehydrating action: moisture absorption on standing at controlled relative humidity; format: physicochemical; details: for moisture content (%) by the Karl Fisher method: 25° C.
Source text: Anhydrous crystalline cyclotetrasaccharide; crystalline cyclotetrasaccharide, monohydrate; anhydrous amorphous cyclotetrasaccharide; and crystalline cyclotetrasaccharide, penta- or hexa-hydrate were experimented in detail on their dehydrating actions, particularly, moisture absorption abilities against saccharides and changes on standing. As a control, anhydrous crystalline α,α-trehalose, anhydrous amorphous α,α-trehalose, and crystalline α,α-trehalose, dihydrate, were used as saccharides. The experiments were as follows: […]

[3] = tested on: α-isomaltosylglucosaccharide-forming enzyme; assay: Specificity of transfer acceptor (C9 enzyme); format: biochemical, Bacillus globisporus C9 strain; parameters: key: −: no saccharide-transferred product was detected through transferring reaction to acceptor; ±: a saccharide-transferred product was detected in an amount of less than one percent through transfer reaction to acceptor; +: a saccharide-transferred product was detected in an amount of at least one percent but less than ten percent through transferring reaction to acceptor; ++: a saccharide-transferred product was detected in an amount of at least ten percent through transferring reaction to acceptor; details: acceptor 1.6%, PINE-DEX #100 donor 4%, one unit/g donor, 30° C., pH 6.0, 24 hours
Protocol: (§1) A variety of saccharides were tested whether they could be used as transferring-acceptors for the α-isomaltosylglucosaccharide-forming enzyme. A solution of D-glucose, D-xylose, L-xylose, D-galactose, D-fructose, D-mannose, D-arabinose, D-fucose, L-sorbose, L-rhamnose, methyl-α-glucopyranoside, methyl-β-glucopyranoside, N-acetyl-glucosamine, sorbitol, α,α-trehalose, isomaltose, isomaltotriose, cellobiose, gentibiose, maltitol, lactose, sucrose, α-cyclodextrin, β-cyclodextrin, or γ-cyclodextrin was prepared. […] The reaction mixtures after the enzymatic reactions were analyzed on gas chromatography (abbreviated as “GLC” hereinafter) for monosaccharides and disaccharides as acceptors, and on HPLC for trisaccharides and higher saccharides as acceptors to confirm whether these saccharides could be used as their transfer acceptors. In the case of performing GLC, the following apparatuses and conditions were used: […] In the case of HPLC analysis, the apparatuses and conditions used were: HPLC apparatus, “CCPD” commercialized by Tosoh Corporation, Tokyo, Japan; column, “ODS-AQ-303” commercialized by YMC Co., Ltd., Tokyo, Japan; eluent, water at a flow rate of 0.5 ml/min; and detection, a differential refractometer.

[4] = tested on: α-isomaltosylglucosaccharide-forming enzyme; assay: Specificity of transfer acceptor (C11 enzyme); format: biochemical, Bacillus globisporus C11 strain; parameters: key: −: no saccharide-transferred product was detected through transferring reaction to acceptor; ±: a saccharide-transferred product was detected in an amount of less than one percent through transfer reaction to acceptor; +: a saccharide-transferred product was detected in an amount of at least one percent but less than ten percent through transferring reaction to acceptor; ++: a saccharide-transferred product was detected in an amount of at least ten percent through transferring reaction to acceptor; details: acceptor 1.6%, PINE-DEX #100 donor 4%, one unit/g donor, 30° C., pH 6.0, 24 hours
Protocol: as §1

[5] = tested on: Aspergillus niger; assay: Bacterial contamination of gelatinized starch (gyuhi); details: gyuhi with six parts by weight of saccharide, 25° C., open conditions
Protocol: The mixture was mixed with a mixer and further mixed to homogeneity with two parts by weight of a starch hydrolyzate, shaped, and roughly dried for two hours, while blowing 40° C. hot air to the contents, to obtain “gyuhi” (a rice paste with sugar).

[6] = relative humidity 75%, 3 days after treatment
[7] = relative humidity 75%, 0 days after treatment
[8] = relative humidity 75%, 1 day after treatment
[9] = relative humidity 75%, 2 days after treatment
[10] = relative humidity 75%, 7 days after treatment

Compound: OC[C@H]1O[C@@H]2OC[C@H]3O[C@H](O[C@@H]4[C@@H](O)[C@@H](OC[C@H]5O[C@H](O[C@H]([C@H]2O)[C@@H]1O)[C@H](O)[C@@H](O)[C@@H]5O)O[C@H](CO)[C@H]4O)[C@H](O)[C@@H](O)[C@@H]3O [Saccharide C, anhydrous amorphous cyclotetrasaccharide]
- Water content (before use) ([1]; listed as C): 0.3
- moisture content (%) by the Karl Fisher method ([2]; relative humidity 60%, 0 days after treatment, listed as C): 0.3%
- moisture content (%) by the Karl Fisher method ([2]; relative humidity 60%, 1 day after treatment, listed as C): 13.7%
- moisture content (%) by the Karl Fisher method ([2]; relative humidity 60%, 2 days after treatment, listed as C): 13.8%
- moisture content (%) by the Karl Fisher method ([2]; relative humidity 60%, 3 days after treatment, listed as C): 13.9%
- moisture content (%) by the Karl Fisher method ([2]; relative humidity 60%, 7 days after treatment, listed as C): 14.1%
- moisture content (%) by the Karl Fisher method ([2]; relative humidity 75%, 0 days after treatment, listed as C): 0.3%
- moisture content (%) by the Karl Fisher method ([2]; relative humidity 75%, 1 day after treatment, listed as C): 14.2%
- moisture content (%) by the Karl Fisher method ([2]; relative humidity 75%, 2 days after treatment, listed as C): 13.6%
- moisture content (%) by the Karl Fisher method ([2]; relative humidity 75%, 3 days after treatment, listed as C): 13.7%
- moisture content (%) by the Karl Fisher method ([2]; relative humidity 75%, 7 days after treatment, listed as C): 13.7%
- moisture absorption level, % of its weight ([2]; relative humidity of 60%, listed as anhydrous amorphous cyclotetrasaccharide): about 14%

Compound: OC[C@H]1O[C@H](O[C@H]2O[C@H](CO)[C@@H](O)[C@H](O)[C@H]2O)[C@H](O)[C@@H](O)[C@@H]1O [Saccharide E, anhydrous crystalline α,α-trehalose, reference compound]
- Water content (before use) ([1]; listed as E): 0.3
- moisture content (%) by the Karl Fisher method ([2]; relative humidity 75%, 0 days after treatment, listed as E): 0.3%
- moisture content (%) by the Karl Fisher method ([2]; relative humidity 75%, 1 day after treatment, listed as E): 9.7%
- moisture content (%) by the Karl Fisher method ([2]; relative humidity 75%, 2 days after treatment, listed as E): 9.6%
- moisture content (%) by the Karl Fisher method [2, 6]: 9.8%
- moisture content (%) by the Karl Fisher method ([2]; relative humidity 75%, 7 days after treatment, listed as E): 9.8%

Compound: OC[C@H]1O[C@H](O[C@H]2O[C@H](CO)[C@@H](O)[C@H](O)[C@H]2O)[C@H](O)[C@@H](O)[C@@H]1O [Saccharide F, anhydrous amorphous α,α-trehalose, reference compound]
- Water content (before use) ([1]; listed as F): 0.8
- moisture content (%) by the Karl Fisher method ([2]; relative humidity 75%, 0 days after treatment, listed as F): 0.8%
- moisture content (%) by the Karl Fisher method ([2]; relative humidity 75%, 1 day after treatment, listed as F): 9.8%
- moisture content (%) by the Karl Fisher method ([2]; relative humidity 75%, 2 days after treatment, listed as F): 9.7%
- moisture content (%) by the Karl Fisher method ([2]; relative humidity 75%, 7 days after treatment, listed as F): 9.7%

Compound: O.O.OC[C@H]1O[C@H](O[C@H]2O[C@H](CO)[C@@H](O)[C@H](O)[C@H]2O)[C@H](O)[C@@H](O)[C@@H]1O [Saccharide G, crystalline α,α-trehalose, dihydrate, reference compound]
- Water content (before use) [1]: 9.7
- moisture content (%) by the Karl Fisher method [2, 7]: 9.7%
- moisture content (%) by the Karl Fisher method [2, 8]: 9.7%
- moisture content (%) by the Karl Fisher method [2, 9]: 9.7%
- moisture content (%) by the Karl Fisher method [2, 6]: 9.8%
- moisture content (%) by the Karl Fisher method [2, 10]: 9.8%

Compound: OC[C@H]1O[C@@](CO)(O[C@H]2O[C@H](CO)[C@@H](O)[C@H](O)[C@H]2O)[C@@H](O)[C@@H]1O [Sucrose, sucrose]
- Product of saccharide transferring reaction, Enzyme of C9 strain [3]: ++ (a saccharide-transferred product was detected in an amount of at least ten percent through transferring reaction to acceptor)
- Product of saccharide transferring reaction, Enzyme of C11 strain [4]: ++ (a saccharide-transferred product was detected in an amount of at least ten percent through transferring reaction to acceptor)

Compound: OC[C@H]1O[C@H](O[C@H]2O[C@H](CO)[C@@H](O)[C@H](O)[C@H]2O)[C@H](O)[C@@H](O)[C@@H]1O [α,α-Trehalose, α,α-trehalose, reference compound]
- Product of saccharide transferring reaction, Enzyme of C9 strain [3]: ++ (a saccharide-transferred product was detected in an amount of at least ten percent through transferring reaction to acceptor)
- Product of saccharide transferring reaction, Enzyme of C11 strain [4]: ++ (a saccharide-transferred product was detected in an amount of at least ten percent through transferring reaction to acceptor)
- moisture absorption level, % of its weight ([2]; relative humidity of 75%): ≤ 10%

Compound: OC[C@H]1O[C@@H]2O[C@H]3[C@H](O)[C@@H](O)[C@@H](O[C@H]4[C@H](O)[C@@H](O)[C@@H](O[C@H]5[C@H](O)[C@@H](O)[C@@H](O[C@H]6[C@H](O)[C@@H](O)[C@@H](O[C@H]7[C@H](O)[C@@H](O)[C@@H](O[C@H]1[C@H](O)[C@H]2O)O[C@@H]7CO)O[C@@H]6CO)O[C@@H]5CO)O[C@@H]4CO)O[C@@H]3CO [α-Cyclodextrin, α-cyclodextrin]
- Product of saccharide transferring reaction, Enzyme of C9 strain [3]: −
- Product of saccharide transferring reaction, Enzyme of C11 strain [4]: −

Compound: OC[C@H]1O[C@@H]2O[C@H]3[C@H](O)[C@@H](O)[C@@H](O[C@H]4[C@H](O)[C@@H](O)[C@@H](O[C@H]5[C@H](O)[C@@H](O)[C@@H](O[C@H]6[C@H](O)[C@@H](O)[C@@H](O[C@H]7[C@H](O)[C@@H](O)[C@@H](O[C@H]8[C@H](O)[C@@H](O)[C@@H](O[C@H]1[C@H](O)[C@H]2O)O[C@@H]8CO)O[C@@H]7CO)O[C@@H]6CO)O[C@@H]5CO)O[C@@H]4CO)O[C@@H]3CO [β-Cyclodextrin, β-cyclodextrin]
- Product of saccharide transferring reaction, Enzyme of C9 strain [3]: −
- Product of saccharide transferring reaction, Enzyme of C11 strain [4]: −

Compound: OC[C@H]1O[C@@H]2O[C@H]3[C@H](O)[C@@H](O)[C@@H](O[C@H]4[C@H](O)[C@@H](O)[C@@H](O[C@H]5[C@H](O)[C@@H](O)[C@@H](O[C@H]6[C@H](O)[C@@H](O)[C@@H](O[C@H]7[C@H](O)[C@@H](O)[C@@H](O[C@H]8[C@H](O)[C@@H](O)[C@@H](O[C@H]9[C@H](O)[C@@H](O)[C@@H](O[C@H]1[C@H](O)[C@H]2O)O[C@@H]9CO)O[C@@H]8CO)O[C@@H]7CO)O[C@@H]6CO)O[C@@H]5CO)O[C@@H]4CO)O[C@@H]3CO [γ-Cyclodextrin, γ-cyclodextrin]
- Product of saccharide transferring reaction, Enzyme of C9 strain [3]: −
- Product of saccharide transferring reaction, Enzyme of C11 strain [4]: −

Compound: crystalline cyclotetrasaccharide, monohydrate [Saccharide B]
- Water content (before use) [1]: 2.7
- moisture content (%) by the Karl Fisher method ([2]; relative humidity 60%, 0 days after treatment): 2.7%
- moisture content (%) by the Karl Fisher method ([2]; relative humidity 60%, 1 day after treatment): 2.7%
- moisture content (%) by the Karl Fisher method ([2]; relative humidity 60%, 2 days after treatment): 2.8%
- moisture content (%) by the Karl Fisher method ([2]; relative humidity 60%, 3 days after treatment): 2.8%
- moisture content (%) by the Karl Fisher method ([2]; relative humidity 60%, 7 days after treatment): 2.9%
- moisture content (%) by the Karl Fisher method [2, 7]: 2.7%
- moisture content (%) by the Karl Fisher method [2, 8]: 14.0%
- moisture content (%) by the Karl Fisher method [2, 9]: 14.0%
- moisture content (%) by the Karl Fisher method [2, 6]: 14.1%
- moisture content (%) by the Karl Fisher method [2, 10]: 14.1%
- moisture absorption level, % of its weight ([2]; relative humidity of 75%): about 14%

Compound: crystalline cyclotetrasaccharide, penta- or hexa-hydrate [Saccharide D]
- colonies of Aspergillus niger found in gyuhi, days on standing [5]: 15 days
